Experiments:
[1] = Separation of surfactant from PEG400, observed for seven days; format: physicochemical; conditions: 1 wt. % solution in PEG400, 50 ml tubes, observed daily for seven days
Method: 1 wt. % solutions of C8AO (Hexyl dimethyl amine oxide), C10AO (NN dimethyl octyl amine oxide), C14AO (NN Dimethyl dodecyl amine oxide), […] and C18AO (NN Dimethyl-N-oxide hexadecane amine) with PEG400 were prepared and placed in 50 ml tubes. The tubes were observed daily for seven days. No separation of surfactant from PEG400 was observed.

[2] = Method: Non-ionic surfactants (Tergitol 15-S-5, Surfynol465), an amphoteric surfactant (Mackam OCT-50), an anionic surfactant (Dodecylbenzene sulfonate Na) and a cationic surfactant (Cetyl trimethyl ammonium bromide) were tested for solubility in an inkjet test ink having the following formulation.
The pass/fail criteria were the absence or presence of insoluble material on the bottom on the container after three days at room temperature.

[3] = Wetting effectiveness of surfactants on orifice (nozzle) plate; format: physicochemical; parameters: key: Good: Wetting is considered “good” when a very thick layer of ink spreads out evenly on the orifice plate
Method: To determine an effective surfactant concentration range in a servicing fluid, the following procedure was used. A think uniform coat of test servicing fluid was applied to the nozzle plate. 0.5 μl of drop test ink was then applied to the coated nozzle plate and the maximum dot diameter was then measured.
Wetting is considered “good” when a very thick layer of ink spreads out evenly on the orifice plate.

Separation of surfactant from PEG400 [1] | Structure (SMILES) | Compatibility [2] | other results
No separation | CCCCCCCC[N+](C)(C)[O-] [Dimethyl Octylamine oxide] |  | Wetting ([3]; 0.01 wt. % surfactant in PEG 300 servicing fluid): Good; Wetting ([3]; 0.1 wt. % surfactant in PEG 300 servicing fluid): Good; Wetting ([3]; 1.0 wt. % surfactant in PEG 300 servicing fluid): Poor; Wetting ([3]; 2.0 wt. % surfactant in PEG 300 servicing fluid): Poor; Wetting ([3]; 3.0 wt. % surfactant in PEG 300 servicing fluid): Poor; Wetting ([3]; 4.0 wt. % surfactant in PEG 300 servicing fluid): Poor
No separation | CCCCCCCCCCCCCC[N+](C)(C)[O-] [Myristyl dimethyl amine oxide] |  | 
No separation | CCCCCCCCCCCCCCCC[N+](C)(C)[O-] [NN Dimethyl-N-oxide hexadecane amine] |  | 

Second part, the compound before the results:

Structure (SMILES) | Separation of surfactant from PEG400 [1] | Compatibility [2] | other results
CCCCCCCCCCCC[N+](C)(C)[O-] [C14AO, NN Dimethyl dodecyl amine oxide] | No separation |  | 
CCCCCCCCCCCCCCCC[N+](C)(C)C.[Br-] [Cetyl trimethyl ammonium bromide] |  | Fail | 
CCCCCC[N+](C)(C)[O-] [Hexyl dimethyl amine oxide] | No separation | Pass | 
